# Measurements taken from patent US10517889B2, “Modulators of SMAD7 expression” (Ionis Pharmaceuticals, Inc., priority 2017, dated 2019).
# Strand notation (5' to 3'): a small letter for the sugar, then the base; units joined by * are phosphorothioate-linked, units joined directly phosphodiester-linked; [ ] holds rarer units or linkages, { } end groups; capitals alone tell only the bases. k = constrained ethyl (cEt); [5mC] = 5-methylcytosine; d = 2'-deoxy (DNA)
# Legend:
# human SMAD7 mRNA [1] = assay: Antisense inhibition of human SMAD7 mRNA expression in Hep3B cells by 3-10-3 cEt gapmers, 10,000 nM, electroporation (Example 2); format: cell-based; settings: Hep3B cells, electroporation with 10,000 nM antisense oligonucleotide, approximately 24 hours, SMAD7 mRNA by RT-PCR (RTS5062), relative to untreated control cells
# Procedure, shortened: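 Hep3B cells (20,000 per well) were electroporated with 10,000 nM 16-mer 3-10-3 cEt gapmer (phosphorothioate, 5-methylcytosine). After about 24 h, SMAD7 mRNA was quantified by qRT-PCR with primer probe set RTS5062, normalised to RIBOGREEN total RNA, and expressed as percent inhibition versus untreated cells.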
# human SMAD7 mRNA [2] = assay: Dose-dependent inhibition of human SMAD7 mRNA expression in Hep3B cells (Example 3, Study 1 and 2); format: cell-based; settings: electroporation; for % inhibition of SMAD7 mRNA expression: approximately 16 hours; for IC50: Study 2 (740-20000 nM)
# Procedure, shortened: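 Hep3B cells, 20,000 per well, electroporated with antisense oligonucleotide at 0.31, 1.25, 5.00 or 20.00 μM (first series) or 0.74, 2.22, 6.67 or 20.00 μM (second series). After ~16 h, SMAD7 mRNA measured by RT-qPCR (RTS5062), normalised to RIBOGREEN total RNA. Percent inhibition vs untreated cells; IC50 derived.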
# [3] = 740 nM, Study 2, relative to untreated control cells
Substance,% Inhibition (human SMAD7 mRNA [1]) [%],% inhibition of SMAD7 mRNA expression (human SMAD7 mRNA [2]; [3]) [%],"% inhibition of SMAD7 mRNA expression (human SMAD7 mRNA [2]; 2220 nM, Study 2) [%]","% inhibition of SMAD7 mRNA expression (human SMAD7 mRNA [2]; 6670.0 nM, Study 2) [%]","% inhibition of SMAD7 mRNA expression (human SMAD7 mRNA [2]; 20000.0 nM, Study 2) [%]",IC50 (human SMAD7 mRNA [2]) [nM]
830053 (kG*kG*kG*dT*dG*dA*dG*dT*dA*dA*d[5mC]*d[5mC]*dA*kG*k[5mC]*kT; antisense) [compound 830053],68,29,56,79,87,2000
830067 (kG*kA*kA*dA*dT*dG*dG*dT*dG*d[5mC]*dT*d[5mC]*dT*kG*k[5mC]*k[5mC]; antisense) [compound 830067],63,23,59,80,88,10000
830095 (kT*kG*kA*dG*dT*dA*dA*dA*d[5mC]*dA*dA*dT*dA*k[5mC]*k[5mC]*k[5mC]; antisense) [compound 830095],73,3,37,42,60,2000
830097 (k[5mC]*k[5mC]*kA*dT*d[5mC]*dT*dA*dA*d[5mC]*dA*dA*d[5mC]*dA*kT*k[5mC]*k[5mC]; antisense) [compound 830097],68,29,60,78,86,1000
830099 (kG*k[5mC]*k[5mC]*dT*dT*dT*dG*dG*dA*dA*dT*dT*dA*kG*kT*kA; antisense) [compound 830099],79,42,56,70,92,10000
830100 (kG*kG*kA*dG*d[5mC]*dT*d[5mC]*dA*dA*dA*d[5mC]*dT*dT*kT*kG*kA; antisense) [compound 830100],61,3,8,38,69,2000
830122 (kG*kA*kG*dA*dA*dT*d[5mC]*dA*dA*dG*d[5mC]*d[5mC]*d[5mC]*kT*kG*kG; antisense) [compound 830122],57,28,54,66,74,3000
830128 (antisense kA*k[5mC]*k[5mC]*dT*d[5mC]*d[5mC]*dG*dA*dG*dG*d[5mC]*dA*d[5mC]*k[5mC]*kA*k[5mC]) [compound 830128],87,20,55,74,85,3000
830131 (antisense k[5mC]*k[5mC]*k[5mC]*dA*d[5mC]*d[5mC]*dT*d[5mC]*d[5mC]*dG*dA*dG*dG*k[5mC]*kA*k[5mC]) [compound 830131],68,34,48,51,61,5000
830135 (antisense kA*kA*kG*dT*dA*d[5mC]*dA*dA*dT*d[5mC]*dT*d[5mC]*d[5mC]*kT*kG*kG) [compound 830135],64,16,44,56,71,5000
830137 (antisense kA*kT*kG*dA*dA*dA*dG*dT*dA*d[5mC]*dA*dA*dT*k[5mC]*kT*k[5mC]) [compound 830137],68,19,46,63,84,3000
830138 (antisense kG*kG*kA*dG*dT*dT*dG*d[5mC]*dA*dT*dG*d[5mC]*d[5mC]*kT*kT*kT) [compound 830138],71,0,40,61,87,5000
830142 (antisense kT*kG*kT*dG*d[5mC]*dA*d[5mC]*d[5mC]*dA*dG*dG*dT*dG*kA*kG*k[5mC]) [compound 830142],60,13,37,32,49,> 20000
830144 (antisense kG*kG*kG*dT*dG*dT*dG*d[5mC]*dA*d[5mC]*d[5mC]*dA*dG*kG*kT*kG) [compound 830144],66,47,68,85,96,1000
830157 (antisense kG*kA*kA*d[5mC]*dT*dG*dT*dG*d[5mC]*d[5mC]*dT*d[5mC]*dA*kG*k[5mC]*kA) [compound 830157],70,24,50,73,81,3000
830163 (antisense k[5mC]*kA*kA*d[5mC]*dT*dG*dA*dA*dG*dG*dT*dG*dA*k[5mC]*k[5mC]*k[5mC]) [compound 830163],60,33,49,73,84,2000
